Columns and labels:
[1] = biological target: T1, nomacopan (EV576, rVA576, OmCI protein, Coversin), Ornithodoros moubata, amino acids 19 to 168 of SEQ ID NO: 2 (SEQ ID NO: 4) (Ornithodoros moubata, UniProt Q5YD59); test: LTB4 binding by fluorescence titration (protein Tyr/Trp fluorescence quenching)
T1 sequence (Q5YD59 19-168): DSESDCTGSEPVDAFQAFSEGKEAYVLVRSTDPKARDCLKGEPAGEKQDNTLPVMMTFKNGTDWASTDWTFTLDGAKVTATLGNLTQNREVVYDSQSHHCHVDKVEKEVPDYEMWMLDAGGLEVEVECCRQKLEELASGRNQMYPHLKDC
Description: This may be carried out as follows:
Purified 100 nM solutions of nomacopan, in 2 mL PBS were applied in a quartz cuvette (10 mm path length; Hellma, Mülheim, Germany) equipped with a magnetic stirrer. Temperature was adjusted to 20° C. and, after equilibrium was reached, protein Tyr/Trp fluorescence was excited at 280 nm (slit width: 15 nm). The fluorescence emission was measured at 340 nm (slit width: 16 nm) corresponding to the emission maximum. […] For calculation of the KD value, data was normalized to an initial fluorescence intensity of 100%, the inner filter effect was corrected using a titration of 3 μM N-acetyl-tryptophanamide solution and data was plotted against the corresponding ligand concentration. Then, non-linear least squares regression based on the law of mass action for bimolecular complex formation was used to fit the data with Origin software version 8.5 (OriginLab, Northampton, Mass., USA) using a published formula (Breustedt et al., 2006).

[2] = test system: experimental autoimmune uveitis (EAU) in C57/B16 mice; test: Experimental autoimmune uveitis (EAU), topical treatment, clinical score by fundoscopy; format: in vivo, mouse; details: twice daily 2-5 μl for 7 days, Maxidex, day 21 post immunization, n=12 eyes

SMILES	Kd [1] [nM]	clinical score compared with L-nomacopan treated mice [2]
CCCCC/C=C\C[C@@H](O)/C=C/C=C/C=C\[C@@H](O)CCCC(=O)O [LTB4, Leukotriene B4]	0.2 to 0.3	
C[C@@H]1C[C@H]2[C@@H]3CCC4=CC(=O)C=C[C@]4(C)[C@@]3(F)[C@@H](O)C[C@]2(C)[C@@]1(O)C(=O)CO [dexamethasone]		in line with

Reference: patent US20220211810A1 (priority 2019, published 2022)
